Columns and labels:
[1] = biological target: T1, NOS3 (Mus musculus, UniProt P70313); experiment: NOS3 dimer/monomer by low-temperature SDS-PAGE in TAC hearts; format: in vivo; details: WT mice, TAC 3 weeks, oral co-treatment
T1 construct: from tissue; host or cells: mouse heart (myocardium) after sham or TAC surgery
T1 sequence (P70313 2-1202 limits assumed): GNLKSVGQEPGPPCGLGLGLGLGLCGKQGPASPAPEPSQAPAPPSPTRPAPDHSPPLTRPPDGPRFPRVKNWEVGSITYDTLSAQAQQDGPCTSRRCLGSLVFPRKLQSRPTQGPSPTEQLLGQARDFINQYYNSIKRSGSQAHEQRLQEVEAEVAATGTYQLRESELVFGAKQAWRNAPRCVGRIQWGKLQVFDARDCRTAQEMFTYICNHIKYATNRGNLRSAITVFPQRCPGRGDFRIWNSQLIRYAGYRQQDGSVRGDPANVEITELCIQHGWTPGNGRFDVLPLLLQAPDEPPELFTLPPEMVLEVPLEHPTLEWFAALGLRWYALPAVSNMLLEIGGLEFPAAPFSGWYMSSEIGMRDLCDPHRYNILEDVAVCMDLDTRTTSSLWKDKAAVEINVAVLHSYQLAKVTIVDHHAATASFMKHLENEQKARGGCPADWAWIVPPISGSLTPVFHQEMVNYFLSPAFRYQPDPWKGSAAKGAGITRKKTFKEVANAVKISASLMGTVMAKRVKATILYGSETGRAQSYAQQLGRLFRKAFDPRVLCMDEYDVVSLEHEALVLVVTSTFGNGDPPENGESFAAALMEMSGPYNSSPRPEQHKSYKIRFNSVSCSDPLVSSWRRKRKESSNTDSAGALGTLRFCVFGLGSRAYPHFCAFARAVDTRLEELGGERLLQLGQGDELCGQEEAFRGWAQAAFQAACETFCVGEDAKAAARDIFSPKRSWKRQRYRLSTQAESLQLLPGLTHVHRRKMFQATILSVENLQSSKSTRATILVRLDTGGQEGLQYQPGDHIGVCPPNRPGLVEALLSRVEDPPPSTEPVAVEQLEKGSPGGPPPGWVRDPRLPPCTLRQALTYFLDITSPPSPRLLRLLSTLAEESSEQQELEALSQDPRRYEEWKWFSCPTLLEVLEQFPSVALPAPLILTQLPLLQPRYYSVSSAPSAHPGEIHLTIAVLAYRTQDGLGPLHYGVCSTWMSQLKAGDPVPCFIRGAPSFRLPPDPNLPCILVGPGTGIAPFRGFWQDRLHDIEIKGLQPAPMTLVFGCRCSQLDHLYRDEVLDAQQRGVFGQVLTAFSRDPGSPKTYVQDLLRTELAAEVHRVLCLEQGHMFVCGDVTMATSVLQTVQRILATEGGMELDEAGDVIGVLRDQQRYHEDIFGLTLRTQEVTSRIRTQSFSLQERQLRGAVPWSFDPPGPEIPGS
Procedure: SDS-resistant NOS3 dimers and monomers were assayed using low-temperature SDS PAGE under reducing or non-reducing conditions, as described previously^7. NOS3 was immunoprecipitated as described^16 and the resulting samples added to fivefold Laemmli buffer (0.32 mol/l Tris-HCl, pH 6.8, 0.5 mol/l glycine, 10% SDS, 50% glycerol, and 0.03% bromophenol blue) in non-reducing gel (no 2-mercaptoethanol) to identify dimer dissociation due to reduced disulfide bridges. To provide fully denatured control lanes, samples were boiled for 15 minutes prior to loading. Electrophoresis was performed using Tris glycine 6% gels (Invitrogen Corp.), and gels and buffers maintained in an ice bath at 4° C. and stained (SimplyBlue, Invitrogen Corp.). Calcium dependent and independent NOS activity was determined from myocardial homogenates by [3H] L-arginine to [3H] citrulline conversion (Sigma-Aldrich) as described^16. An alternative approach involved more direct Western blot analysis without requiring initial NOS IP. Cold SDS-Page Western blot analysis was performed using a self-made […] SDS-Tris gel. After overnight running on ice, the gel was transferred for 3 h to nitrocellulose membrane. […] Bound antibodies were detected with horseradish peroxidase-conjugated anti-mouse IgG and visualize with an enhanced chemiluminescence detection system.

[2] = system: C57/BL6 WT mice subjected to TAC pressure overload; experiment: Body weight and heart weight in mice subjected to transverse aortic constriction (TAC); format: in vivo, mouse; details: TAC 3 weeks, oral co-treatment 1 mg/g food, mean ± sem
Text: Male NOS3 null mice (NOS3^−/−) and C57/BL6 WT controls (8-11 weeks, Jackson Labs, Bar Harbor, Me., USA) were used. Pressure overload was produced by transverse aorta constriction (TAC). Briefly, The aortic arch was isolated by entering the extrapleural space between the second and third rib, and afterwards the transverse aorta was isolated between the right and left carotid arteries. A 7-0 prolene suture ligature was tied around the transverse aorta against a 27-gauge needle to produce a 65-70% constriction after the removal of the needle. After closing the chest, animals were extubated, and a subcutaneous injection of morphine sulphate 0.2 mg, was administered before they returned to their cages. Animal's ventilatory and circulatory status was checked every 30 minutes during the first 2 hours. Sham-operated mice underwent the same operation except for aortic constriction. […] Animals were randomized to receive placebo or BH4 (120 mg/kg/d) for the next 5 weeks. At the end of the study, i.e. at 9 weeks, animal were sacrificed to receive tissue or underwent in vivo PV-loop analysis. […] Control mice were subject to sham operations, and animals were studied 3-9 weeks following surgery. […]

NOS3 dimerization [1]: unaltered
SMILES: Nc1nc2c(c(=O)[nH]1)NC(C(O)C(O)CO)CN2 (centres unmarked) [H4N, tetrahydroneopterin]
Heart Weight (HW) [2]: 231.3 ± 10.7 mg

— patent publication US20100004248A1, “Use of a Nitric Oxide Synthase Modulator for the Treatment of Cardiac Indications” (priority 2005, published 2010)
